Literature values, collected in PMC12497738, “Linear and conformational epitopes of vicilin-buried peptides as a model for improved nut allergy diagnostics” (Frontiers in Allergy, 2025).
“Also recorded” adds a separate entry of the source.

Test system: 6D12 monoclonal antibody
Conditions: N-terminal helix, amino acids 21–36 of folded JR2.1; unpublished communications by Dr. Geoffrey Mueller (NIEHS); ref [16]
Source text: The mature vicilin domains in Figure 1A are labeled Jug r 2 and Ara h 1. A human monoclonal IgE antibody (6D12) was used to assess IgE binding to conformational epitopes in JR2LS and its three constituent VBPs using ciELISA (Figures 1B,C). […] With this method, a known immunodominant epitope of Ara h 2 was used to identify a cross-reactive, linear epitope in the JR2LS ([16]). The IgE binding regions identified in this study overlap or are near the previously described epitope containing areas, emphasizing the relevance of JR2LS VBPs as clinically relevant IgE targets ([16], [17]). Here, ELISA, linear peptide microarray, and computational analysis were used to ...

Sequence: CQEYCRRQGQGQRQQ [peptide 5, …, N-terminal helix, amino acids 21–36 of the folded JR2.1]
- Binding of 6D12 to peptide 5, in words: specific binding; also recorded: the primary target of 6D12
